Data taken from US20090018150A1, “5-Ht2b Receptor Antagonists” (ASTERAND UK LIMITED, priority 2003, published 2009).
Counter-ions that a name gives are not always drawn.

What was measured:
[1] = target: T1, cloned human 5-HT2C receptor (Homo sapiens, UniProt P28335); test: Human 5-HT2C receptor binding assay; conditions: [3H]mesulergine (1 nM) displacement, CHO-K1 cell membranes; read-out: 5-HT2C pKi (converted)
T1 construct: purchased Euroscreen; host or cells: CHO-K1
T1 sequence (P28335 33-458): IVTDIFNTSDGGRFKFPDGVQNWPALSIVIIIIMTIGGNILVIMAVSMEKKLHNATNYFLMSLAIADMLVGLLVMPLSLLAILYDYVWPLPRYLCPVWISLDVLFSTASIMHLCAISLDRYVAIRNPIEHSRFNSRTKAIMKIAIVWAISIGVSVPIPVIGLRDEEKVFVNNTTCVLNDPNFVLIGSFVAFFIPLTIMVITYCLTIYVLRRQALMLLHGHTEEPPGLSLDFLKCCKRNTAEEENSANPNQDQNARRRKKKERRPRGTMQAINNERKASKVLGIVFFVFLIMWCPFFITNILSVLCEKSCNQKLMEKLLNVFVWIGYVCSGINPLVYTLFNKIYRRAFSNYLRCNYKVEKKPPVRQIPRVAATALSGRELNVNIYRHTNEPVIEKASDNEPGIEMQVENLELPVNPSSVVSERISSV
Protocol: (§1) The binding affinity of ligands for human 5-HT2A and 5-HT2C receptors was determined using the following assay.
Membrane preparations from CHO-K1 cells expressing the cloned human 5-HT2C receptor were obtained (Euroscreen). The membranes were thawed rapidly and diluted in assay buffer containing Tris-HCl (50 mM, pH 7.7), ascorbic acid (0.1%) and pargyline (10 μM). The membranes were resuspended by homogenisation, prior to adding 6 μg of membranes to assay wells containing [^3H]mesulergine (1 nM), assay buffer (50 mM Tris at pH 7.7 and 0.1% ascorbic acid) containing pargyline (10 μM), and test compounds (1×10^−10 to 1×10^−4M). Non specific binding was determined in the presence of 100 μM mianserin. After 30 minutes incubation at 37° C., the assay mixture was filtered through a combination of GF-C and GF-B filters, pre-soaked in 1% bovine serum albumin, using a Brandel cell harvester, and were washed three times using ice cold Tris-HCl buffer (50 mM). Radioactivity retained on the filters was determined by liquid scintillation counting. For each test compound, the concentration that inhibited binding of [^3H]mesulergine by 50% was determined using curve fitting software (Prism). Kd values (concentration of mesulergine required to occupy 50% of the receptor binding sites at equilibrium) determined from saturation binding studies were then used to calculate inhibition dissociation constants (Ki) using the following equation: […]

[2] = target: T2, human cloned 5-HT2B receptors (Homo sapiens, UniProt P41595); test: Human cloned 5-HT2B receptor binding assay; conditions: [3H]LSD (1 nM) displacement, membranes of CHO-K1 cells expressing cloned 5-HT2B receptor; read-out: 5-HT2B pKi (converted)
T2 construct: expressed in transfected cells; host or cells: CHO-K1
Protocol: The binding affinity of the compounds for human cloned 5-HT2B receptors was determined using the following assay.
CHO-K1 cells expressing cloned 5-HT2B receptor were maintained in Ultra-CHO medium containing 400 μg/ml of G418, 100 U/ml penicillin, 100 μg/ml streptomycin, 2.5 μg/ml fungizone and 1-foetal bovine serum, in 95/5% O2/CO2 at 37° C. The cells were harvested using 0.25% trypsin and were centrifuged at 800 rpm for 8 minutes. The cells were homogenised in 50 mM HEPES buffer containing 1 mM disodium EDTA and 1 mM PMSF at pH 7.4, using a Dounce homogeniser (20 strokes). The homogenate was centrifuged at 2280 rpm (1000 g) and 4° C. for 10 minutes, after which the supernatant was removed by decanting. The pellet was re-homogenised as above, and the resulting supernatant removed and combined with that already obtained. The supernatant solution was then centrifuged at 18300 rpm (40000 g) for 10 minutes at 4° C. using a Sorvall centrifuge. The supernatant was removed, and the pellet was re-suspended in 50 mM buffer at pH 7.4 using a Ultra-turrax T25 Polytron, before centrifugation again at 40000 g as above. This wash procedure was repeated, after which the membrane preparation was stored at a concentration of 1 mg/ml at −80° C. until use.
The membranes were thawed rapidly and diluted in assay buffer containing Tris-HCl (50 mM, pH 7.4), ascorbic acid (0.1°) and calcium chloride (4 mM). The membranes were homogenised to resuspend them, prior to adding 10 or 15 μg of membranes to assay wells containing [^3H]LSD (1 nM), assay buffer (50 mM Tris, 4 mM calcium chloride and 0.1° ascorbic acid) containing pargyline (10 μM), and the test compounds (1×10^−10 to 1×10^−4M). Non specific binding was determined in the presence of 100 μM 5-HT. After 30 minutes incubation at 37° C., the assay mixture was filtered through a combination of GF-C and GF-B filters, pre-soaked in 1% polyethyleneimine, using a Brandel cell harvester, and were washed three times using 50 mM Tris-HCl. Radioactivity retained on the filters was determined by liquid scintillation counting. For each test compound, the concentration that inhibited binding of [^3H]LSD by 50% was determined using curve fitting software (Prism). Kd values (concentration of LSD required to occupy 50% of the receptor binding sites at equilibrium) determined from saturation binding studies were then used to calculate inhibition dissociation constants (Ki) using the following equation: […]
This approach follows that set out in Kenakin, T. P. Pharmacologic analysis of drug-receptor interaction. Raven Press, New York, 2nd Edition.

[3] = target: T3, cloned human 5-HT2A receptor (Homo sapiens, UniProt P28223); test: Human 5-HT2A receptor binding assay; conditions: [3H]ketanserin (1 nM) displacement, CHO-K1 cell membranes; read-out: 5-HT2A pKi (converted)
T3 construct: purchased Euroscreen; host or cells: CHO-K1
Protocol: as §1
Membrane preparations from CHO-K1 cells expressing the cloned human 5-HT2A receptor were obtained (Euroscreen). The membranes were thawed rapidly and diluted in assay buffer containing Tris-HCl (50 mM, pH 7.7). The membranes were resuspended by homogenisation, prior to adding 15 μg of membranes to assay wells containing [3H]ketanserin (1 nM), assay buffer (50 mM Tris at pH 7.4) containing pargyline (10 μM), and test compounds (1×10^−10 to 1×10^−4M). Non specific binding was determined in the presence of 100 μM mianserin. After 15 minutes incubation at 37° C., the assay mixture was filtered through a combination of GF-C and GF-B filters, pre-soaked in 0.05% Brij, using a Brandel cell harvester, and were washed three times using ice cold Tris-HCl buffer (50 mM). Radioactivity retained on the filters was determined by liquid scintillation counting. For each test compound, the concentration that inhibited binding of [^3H]ketanserin by 50% was determined using curve fitting software (Prism). Kd values (concentration of ketanserin required to occupy 50% of the receptor binding sites at equilibrium) determined from saturation binding studies were then used to calculate inhibition dissociation constants (Ki) using the following equation: […]

T3 sequence (P28223 whole entry): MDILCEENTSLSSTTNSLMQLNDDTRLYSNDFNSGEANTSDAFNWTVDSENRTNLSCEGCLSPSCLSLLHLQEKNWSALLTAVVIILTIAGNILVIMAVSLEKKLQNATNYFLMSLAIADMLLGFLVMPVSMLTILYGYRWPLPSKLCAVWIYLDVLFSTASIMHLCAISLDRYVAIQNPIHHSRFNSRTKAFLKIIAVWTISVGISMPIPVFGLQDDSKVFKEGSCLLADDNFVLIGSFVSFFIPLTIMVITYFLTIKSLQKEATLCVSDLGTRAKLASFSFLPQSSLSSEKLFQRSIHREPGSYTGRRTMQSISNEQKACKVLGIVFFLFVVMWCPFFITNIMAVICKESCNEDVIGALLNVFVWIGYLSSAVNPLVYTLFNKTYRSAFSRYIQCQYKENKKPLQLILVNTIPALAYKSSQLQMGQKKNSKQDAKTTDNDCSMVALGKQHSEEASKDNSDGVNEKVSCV
T2 sequence (P41595 whole entry): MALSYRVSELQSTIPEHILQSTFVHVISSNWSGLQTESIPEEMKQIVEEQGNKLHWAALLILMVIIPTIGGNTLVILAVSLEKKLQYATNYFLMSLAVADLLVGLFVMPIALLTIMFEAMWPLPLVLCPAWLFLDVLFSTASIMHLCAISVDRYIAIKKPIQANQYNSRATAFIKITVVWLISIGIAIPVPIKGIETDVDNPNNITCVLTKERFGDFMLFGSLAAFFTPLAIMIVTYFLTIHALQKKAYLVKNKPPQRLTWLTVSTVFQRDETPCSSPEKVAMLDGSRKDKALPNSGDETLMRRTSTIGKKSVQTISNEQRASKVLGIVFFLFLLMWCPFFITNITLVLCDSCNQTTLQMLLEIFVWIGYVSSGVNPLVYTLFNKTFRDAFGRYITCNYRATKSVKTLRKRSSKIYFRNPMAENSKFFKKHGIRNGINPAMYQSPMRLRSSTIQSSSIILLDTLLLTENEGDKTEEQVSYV

| SMILES | Ki [1] [nM] | Ki [2] [nM] | Ki [3] [nM] |
| --- | --- | --- | --- |
| Cc1cc(Nc2ccc(I)cc2)nc(N)n1 [Compound 2E, N^4-(4-iodo-phenyl)-6-methyl-pyrimidine-2,4-diamine hydrochloride] | > 316 | < 1000 | > 10000 |
| COc1ccc(-c2c[nH]c(N)n2)c2ccccc12 [Compound 104B, 4-(4-Methoxy-naphthalen-1-yl)-1H-imidazol-2-ylamine] | > 3160 | < 100 | > 3160 |
| Cc1cc(Nc2ccc(Oc3ccccc3)cc2)nc(N)n1 [Compound 2AE, 6-methyl-N^4-(4-phenoxy-phenyl)-pyrimidine-2,4-diamine hydrochloride] | > 316 | < 100 | > 10000 |
| Nc1nc(-c2ccc(-c3ccccc3)cc2)c[nH]1 [Compound 104P, 4-Biphenyl-4-yl-1H-imidazol-2-ylamine] | > 316 | < 316 | > 100 |
| Cc1cccc(-c2cccc(Nc3cc(C)nc(N)n3)c2)c1 [Compound 10E, 6-methyl-N^4-(3′-methyl-biphenyl-3-yl)-pyrimidine-2,4-diamine trifluoroacetic acid] | > 100 | < 100 | > 100 |
| CC(=O)Nc1cccc(-c2cccc(Nc3cc(C)nc(N)n3)c2)c1 [Compound 10I, N-[3′-(2-amino-6-methyl-pyrimidin-4-ylamino)-biphenyl-3-yl]-acetamide hydrochloride] | > 10000 | < 1000 | > 10000 |
| Nc1ncc(-c2cccc(-c3ccccc3Cl)c2)o1 [Compound 209E, 5-(2′-Chloro-biphenyl-3-yl)-oxazol-2-ylamine] | > 10000 | < 316 | > 1000 |
| Cc1cc(Nc2cccc(CO)c2)nc(N)n1 [Compound 2X, [3-(2-amino-6-methyl-pyrimidin-4-ylamino)-phenyl]-methanol hydrochloride] | > 1000 | < 1000 | > 1000 |
| COc1c(-c2cnc(NC(C)=O)[nH]2)ccc2ccccc12 [Compound 103E, N-[4-(1-Methoxy-naphthalen-2-yl)-1H-imidazol-2-yl]-acetamide] | > 1000 | < 100 | > 10000 |
| COc1ccc(Nc2cc(C)nc(N)n2)cc1Cl [Compound 2AC, N^4-(3-chloro-4-methoxy-phenyl)-6-methyl-pyrimidine-2,4-diamine, hydrochloride] | > 1000 | < 1000 | > 1000 |
| Cc1cc(Nc2ccc(F)c(F)c2)nc(N)n1 [Compound 2M, N^4-(3,4-difluoro-phenyl)-6-methyl-pyrimidine-2,4-diamine hydrochloride] | > 1000 | < 1000 | > 1000 |
| Cc1cc(Nc2cccc3c2CCC3)nc(N)n1 [Compound 2R, N^4-indan-4-yl-6-methyl-pyrimidine-2,4-diamine hydrochloride] | > 1000 | < 1000 | > 1000 |
| Cc1cc(Oc2cccc3ccccc23)nc(N)n1 [Compound 4B, 4-methyl-6-(naphthalen-1-yloxy)-pyrimidin-2-ylamine] | > 10000 | < 100 | > 10000 |
| Cc1cc(Nc2cccc(Oc3ccccc3)c2)nc(N)n1 [Compound 2AD, 6-methyl-N^4-(3-phenoxy-phenyl)-pyrimidine-2,4-diamine hydrochloride] | > 1000 | < 1000 | > 316 |
| CCOc1ccc2ccccc2c1-c1c[nH]c(N)n1 [Compound 104A, 4-(2-Ethoxy-naphthalen-1-yl)-1H-imidazol-2-ylamine] | > 100 | < 1000 | > 1000 |
| CC(=O)c1cccc(-c2cccc(Nc3cc(C)nc(N)n3)c2)c1 [Compound 10C, 1-[3′-(2-amino-6-methyl-pyrimidin-4-ylamino)-biphenyl-3-yl]-ethanone trifluoroacetic acid] | > 316 | < 1000 | > 316 |
| Cc1cccc(-c2ccc(Nc3cc(C)nc(N)n3)cc2)c1 [Compound 11B] | > 31.6 | < 10 | > 1000 |
| CC(=O)Nc1nc(-c2cccc3sccc23)c[nH]1 [Compound 103L, N-(4-Benzo[b]thiophen-4-yl-1H-imidazol-2-yl)-acetamide] | > 10000 | < 100 | > 10000 |
| Cc1cc(Nc2ccc(Cl)c(Cl)c2)nc(N)n1 [Compound 2N, N^4-(3,4-dichloro-phenyl)-6-methyl-pyrimidine-2,4-diamine hydrochloride] | > 1000 | < 1000 | > 1000 |
| COc1ccc(-c2cccc(Nc3cc(C)nc(N)n3)c2)cc1OC [Compound 10B, N-(3′,4′-dimethoxy-biphenyl-3-yl)-6-methyl-pyrimidine-2,4-diamine trifluoroacetic acid] | > 10000 | < 1000 | > 10000 |

Further lines, results first:

| Ki [1] [nM] | Ki [2] [nM] | Ki [3] [nM] | SMILES |
| --- | --- | --- | --- |
| > 1000 | < 100 | > 1000 | COc1ccccc1-c1cccc(-c2cnc(N)o2)c1 [Compound 209G, 5-(2′-Methoxy-biphenyl-3-yl)-oxazol-2-ylamine trifluoroacetic acid] |
| > 1000 | < 316 | > 1000 | COc1ccccc1-c1cccc(-c2nc(N)oc2C)c1 [Compound 218C, 4-(2′-methoxy-biphenyl-3-yl)-5-methyl-oxazol-2-ylamine, trifluoroacetic acid] |
| > 1000 | < 1000 | > 1000 | Nc1ncc(-c2cccc(-c3ccc(F)cc3)c2)o1 [Compound 209J, 5-(4′-Fluoro-biphenyl-3-yl)-oxazol-2-ylamine, trifluoroacetic acid] |
